The target of data set [1] is T1, UDP-glucuronosyltransferase 1A9 (Homo sapiens, UniProt O60656).
T1 sequence (O60656 whole entry): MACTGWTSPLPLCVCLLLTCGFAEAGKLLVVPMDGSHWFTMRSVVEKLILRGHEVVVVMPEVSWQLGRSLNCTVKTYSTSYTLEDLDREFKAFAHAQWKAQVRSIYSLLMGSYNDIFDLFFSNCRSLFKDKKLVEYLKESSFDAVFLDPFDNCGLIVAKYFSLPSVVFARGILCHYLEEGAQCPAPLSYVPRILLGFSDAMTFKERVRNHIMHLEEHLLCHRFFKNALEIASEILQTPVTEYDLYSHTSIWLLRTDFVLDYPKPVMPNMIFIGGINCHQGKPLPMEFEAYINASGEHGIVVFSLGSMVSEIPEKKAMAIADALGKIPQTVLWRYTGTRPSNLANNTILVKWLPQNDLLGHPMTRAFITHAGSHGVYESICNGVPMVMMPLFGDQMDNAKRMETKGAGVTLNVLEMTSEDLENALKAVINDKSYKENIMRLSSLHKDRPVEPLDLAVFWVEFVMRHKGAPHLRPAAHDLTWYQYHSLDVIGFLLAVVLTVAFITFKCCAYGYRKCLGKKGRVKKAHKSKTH
Put plainly: Activity of human recombinant UGT1A9 assessed as intrinsic clearance incubated for 5 mins prior to UDPGA addition measured after 90 mins. It is filed as ADME. The settings on record: recombinant enzyme, 1.5 h.

Data set [2] deals with Liver microsome. Put plainly: Intrinsic clearance in human liver microsomes incubated for 5 mins prior to UDPGA addition measured after 90 mins. In kind it is ADME. The settings on record: 1.5 h. On the technique in general: Microsomes from liver hold many membrane-bound enzymes, among them those of drug oxidation.
The test system of data set [3] is Liver microsome. The data set can be described thus: Drug metabolism in human liver microsomes assessed as IRI-O-5-monoglucuronide formation incubated for 5 mins prior to UDPGA addition measured after 90 mins by Eadie-Hoftsee plot analysis. The settings on record: 1.5 h. In kind it is ADME.
Data set [4] addresses T2, UDP-glucuronosyltransferase 1A8 (Homo sapiens, UniProt Q9HAW9).
T2 sequence (Q9HAW9 whole entry): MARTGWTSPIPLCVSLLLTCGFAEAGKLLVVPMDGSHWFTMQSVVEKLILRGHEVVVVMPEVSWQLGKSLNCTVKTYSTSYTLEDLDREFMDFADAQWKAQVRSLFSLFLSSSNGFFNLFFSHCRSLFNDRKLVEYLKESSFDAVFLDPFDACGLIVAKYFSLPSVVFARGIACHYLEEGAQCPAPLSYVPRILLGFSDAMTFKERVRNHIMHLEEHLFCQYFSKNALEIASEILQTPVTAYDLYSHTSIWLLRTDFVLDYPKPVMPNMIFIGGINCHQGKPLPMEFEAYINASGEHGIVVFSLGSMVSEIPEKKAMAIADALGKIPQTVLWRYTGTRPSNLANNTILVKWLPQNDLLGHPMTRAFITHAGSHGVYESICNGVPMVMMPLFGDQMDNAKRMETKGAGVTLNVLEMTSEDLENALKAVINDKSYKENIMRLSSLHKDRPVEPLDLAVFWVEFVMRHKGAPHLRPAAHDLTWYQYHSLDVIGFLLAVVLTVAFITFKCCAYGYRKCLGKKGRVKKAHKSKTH
The data set can be described thus: Substrate inhibition of human recombinant UGT1A8 assessed as IRI-O-5-monoglucuronide formation incubated for 5 mins prior to UDPGA addition measured after 90 mins by Eadie-Hoftsee plot analysis. It is filed as ADME.

Data set [5] in a line: Drug metabolism in pig liver microsomes assessed as IRI-O-4'-monoglucuronide formation incubated for 5 mins prior to UDPGA addition measured after 90 mins by Eadie-Hoftsee plot analysis. The settings on record: 1.5 h. It is filed as ADME, Sus scrofa.
The target of data set [6] is T3, UDP-glucuronosyltransferase 1A1 (Homo sapiens, UniProt P22309).
T3 sequence (P22309 whole entry): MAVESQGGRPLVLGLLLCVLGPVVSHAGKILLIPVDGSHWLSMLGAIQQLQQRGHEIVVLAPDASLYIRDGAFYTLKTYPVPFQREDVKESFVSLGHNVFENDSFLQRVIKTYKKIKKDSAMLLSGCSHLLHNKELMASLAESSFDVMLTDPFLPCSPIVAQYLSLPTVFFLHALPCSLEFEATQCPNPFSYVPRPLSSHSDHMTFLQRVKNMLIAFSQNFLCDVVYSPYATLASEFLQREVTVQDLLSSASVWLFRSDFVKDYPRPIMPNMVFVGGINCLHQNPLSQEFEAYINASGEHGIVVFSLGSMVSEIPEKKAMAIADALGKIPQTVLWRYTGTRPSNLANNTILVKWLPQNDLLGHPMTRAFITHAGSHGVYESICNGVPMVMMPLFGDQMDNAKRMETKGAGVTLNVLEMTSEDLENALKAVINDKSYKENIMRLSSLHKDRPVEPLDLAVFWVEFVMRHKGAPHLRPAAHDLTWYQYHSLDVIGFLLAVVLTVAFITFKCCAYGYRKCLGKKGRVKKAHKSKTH
Put plainly: Substrate inhibition of human recombinant UGT1A1 assessed as IRI-O-4'-monoglucuronide formation incubated for 5 mins prior to UDPGA addition measured after 90 mins by Eadie-Hoftsee plot analysis. In kind it is ADME.

Data set [7] addresses T3, UDP-glucuronosyltransferase 1A1. Put plainly: Drug metabolism assessed as human recombinant UGT1A1-mediated irilone-O-5-monoglucuronide formation at 25 uM incubated for 5 mins prior to UDPGA addition measured after 90 mins by HPLC-DAD analysis. In kind it is ADME. The settings on record: recombinant enzyme, 1.5 h.
Data set [8] addresses T2, UDP-glucuronosyltransferase 1A8. Put plainly: Substrate inhibition of human recombinant UGT1A8 assessed as IRI-O-4'-monoglucuronide formation incubated for 5 mins prior to UDPGA addition measured after 90 mins by Eadie-Hoftsee plot analysis. It is filed as ADME.
Data set [9] has as its target Liver microsome. The data set can be described thus: Drug metabolism in human liver microsomes assessed as substrate inhibition of IRI-O-4'-monoglucuronide formation incubated for 5 mins prior to UDPGA addition measured after 90 mins by Eadie-Hoftsee plot analysis. In kind it is ADME.
Data set [10] deals with Liver microsome. The data set can be described thus: Drug metabolism in Sprague-Dawley rat liver microsomes assessed as substrate inhibition of IRI-O-4'-monoglucuronide formation incubated for 5 mins prior to UDPGA addition measured after 90 mins by Eadie-Hoftsee plot analysis. In kind it is ADME.
Data set [11] can be described thus: Drug metabolism in pig liver microsomes assessed as substrate inhibition of IRI-O-4'-monoglucuronide formation incubated for 5 mins prior to UDPGA addition measured after 90 mins by Eadie-Hoftsee plot analysis. It is filed as ADME, Sus scrofa.
For data set [12], the target named is T3, UDP-glucuronosyltransferase 1A1. Put plainly: Drug metabolism assessed as human recombinant UGT1A1-mediated irilone-O-4'-monoglucuronide formation at 25 uM incubated for 5 mins prior to UDPGA addition measured after 90 mins by HPLC-DAD analysis. It is filed as ADME. The settings on record: recombinant enzyme, 1.5 h.

Usually Km stands for the concentration of substrate that gives half-maximal velocity. As usually defined, the Vmax is the rate approached at saturating substrate. On to `O=c1c(-c2ccc(O)cc2)coc2cc3c(c(O)c12)OCO3`, for which the CL in data set [1] was 53300 µL/min/mg. Further, the CLH in the data set with Liver microsome [2] worked out at 48500 µL/min/mg. Moreover, the Km in the data set with Liver microsome [3] came to 9.8 µM; in data set [5], 88.6 µM. Further, the Vmax came out at 0.43 nmol/mg/min in the data set on Liver microsome [3] and 4.87 nmol/mg/min in data set [5]. Also, the Ki was 22.6 µM in data set [4]; 14.1 µM in [6]; 23.4 µM in data set [8]; 50.9 µM on Liver microsome [9]; 44.7 µM on Liver microsome [10]; 49.1 µM in data set [11]. Besides, the Drug metabolism result in [7] and in data set [12] was “metabolite_detected” in each case.

Values taken from ChEMBL document CHEMBL3525955, “Glucuronidation of the red clover isoflavone irilone by liver microsomes from different species and human UDP-glucuronosyltransferases” (Drug Metab Dispos, 2011).
